Measured values from patent publication US20190262431A1, “CBL-FAMILY INHIBITOR COMPRISING A CBL-FAMILY TKB DOMAIN BINDING PEPTIDE FOR THE PREVENTION OR TREATMENT OF DISEASES” (IMBA - INSTITUT FÜR MOLEKULARE BIOTECHNOLOGIE GMBH, priority 2016, published 2019).
Non-standard residues stand in square brackets, D forms with d. Residues, ends and D or L forms follow the SMILES beside them. No end group written: not given here. *: point of attachment. pY = N[C@@H](Cc1ccc(OP(=O)(O)O)cc1)C(=O)O; Cbz = O=C(OCc1ccccc1)*

Columns and labels:
[1] = system: murine CD4+ T cells; assay: Murine T cell proliferation assay; assay type: cell-based, mouse; conditions: for proliferative response of cblb Δ/Δ CD4+ T cells: CD3 or CD3 plus CD28 antibodies, versus untreated cells; for proliferative response of cblb Δ/Δ CD4+ T cells / proliferative response of cblb+/+ CD4+ T cells: 3 days; for proliferative response of cblb+/+ CD4+ T cells: plate bound CD3 or CD3 plus soluble CD28 antibodies, versus no peptide
Experimental: Murine CD4+ T cells were purified from pooled spleens and lymph nodes using MACS technology (Miltenyi Biotec). […] Purified T cells were labeled with the cell proliferation dye eFluor 670 (eBioscience) and cultured in IMDM cell culture medium (Gibco), supplemented with 10% fetal bovine serum (Sigma), L-Glutamine (Thermo Fisher), Penicillin and Streptomycin (Thermo Fisher), in the presence of 5 ng/ml of recombinant IL-2 (Biolegend) and the indicated concentrations of peptide. After 3 days, cells were stained with the fixable viability dye eFluor 780 (Thermo Fisher), and stained with a CD4 antibody (RM4-5, Brilliant Violet 711, Biolegend). Cells were analyzed with a BD LSR Fortessa II flow cytometer (Becton Dickinson), subsequently, and data were analyzed using the FlowJo v10.0.8 software (Tree Star).

[2] = system: BM-DC; assay: Killing assay (fungicidal activity against Candida albicans); assay type: cell-based, mouse; conditions: for BM-DC mediated Candida albicans killing in the presence of inhibitor: inhibitor added 30 min prior to stimulation
Experimental: To assess the fungicidal activity, the indicated immune cells were plated in replicates at a density of 1×10^5 cells/well in 96-well plates. Cells were incubated with Candida albicans at a multiplicity of infection of 1:500 for 24 h. After incubation, phagocytes were fixed by the addition of paraformaldehyde at a final concentration of 4%. Subsequently, Candida albicans were stained with Crystal Violet (Sigma) and killing was assessed by a comparison of colony numbers in wells with or without phagocytes.
(§1) BM-M and BM-DC were stimulated with C. albicans (strain SC5314), Zymosan (Invivogen), Curdlan (Invivogen), TDM (Invivogen), CpG (Invivogen), LPS (Invivogen), or C. albicans hyphae. For inhibition experiments cells were treated with the Syk inhibitor R406 (Selleckchem), anti-Dectin-1 antibody (Invivogen), MG132 (Calbiochem), or Dynasore (Sigma-Aldrich), 30 min prior to stimulation (MOI: Immune cell: C. albicans=1:2). Fungal isolates of Candida krusei, Candida glabrata, and Candida dubliniensis were kindly provided by the Allgemeines Krankenhaus Vienna (AKH). Fungal isoates were tested by PCR to verify the respective species.

[3] = system: BM-DC; assay: Cytokine secretion by Candida albicans stimulated BM-DC (ELISA); assay type: cell-based, mouse; conditions: 18 h
Experimental: Cytokine secretion by cell culture supernatants or in the peritoneal lavage was assessed with ELISA kits purchased from eBioscience (IL-1β, TNF, IL-6, IL-12, IL-23) or R&D Systems (IL-1Ra) according to the manufacturer's instructions. Production of reactive oxygen species (ROS) was measured with as assay using luminol as the probe in real-time over 90 min as described previously (Bourgeois et al., 2009). Caspase-8 activity was assessed using the CaspGLOW assay (Promega) according to the manufacturer's instructions.
as §1

[4] = system: human CD8+ T cells; assay: Human T cell assays (CFSE proliferation), CD8+ T cells; assay type: cell-based; conditions: plate bound CD3/CD28 antibodies; 3 days; CFSE dilution
Experimental: (§2) Peripheral blood mononuclear cells (PBMC) were purified from human blood using a Lymphoprep™ PBMC isolation kit (Stemcell Technologies), according to the manufacturer's instructions. Human CD4+ or CD8+ T cells were purified from PBMC using CD4 or CD8 MicroBeads (Miltenyi Biotec), respectively, and MACS technology (Miltenyi Biotec). For proliferation assays, flat-bottom 96-well plates were coated with CD3 (OKT3, 0.1 μg/ml) and CD28 (CD28.2, 0.1 μg/ml) antibodies in PBS at 37 degrees C. for 2 h. To monitor proliferative expansion, assays were carried out with carboxyfluorescein succinimidyl ester (CFSE; eBioscience) labeled T cells. T cells were cultured in X-VIVO 15 chemically defined, serum free hematopoietic cell medium (Lonza), with the indicated concentrations of peptide or vehicle control. After 72 h […], cells were labeled with antibodies against CD4 (RPA-T4, Brilliant Violet 510 labeled, Biolegend) or CD8 (RPA-T8, APC-eFluor 780 labeled, eBioscience), and CD69 (FN50, PE/Cy7 labeled, Biolegend), and analyzed on a Beckman Coulter Gallios flow cytometer. Data were analyzed using Beckman Coulter Kaluza software. IFN-γ secretion into cell culture supernatants of the proliferation assays was determined by enzyme-linked immunosorbent assays (ELISA) according to the manufacturer's (BD Biosciences) instructions.

[5] = system: human CD4+ T cells; assay: Human T cell assays (CFSE proliferation, IFN-γ ELISA, CD69), CD4+ T cells; assay type: cell-based
Experimental: as §2

[6] = system: B16-SIY melanoma cells; assay: B16-SIY in vivo tumor model; parameters: species or system mouse; conditions: C57Bl/6 mice; 100 μg i.p. every other day
Experimental: B16-SIY tumor cells as described in (Spranger, 2014) were cultured in DMEM cell culture media (Gibco) supplemented with 10% fetal bovine serum (Sigma), L-Glutamine (Thermo Fisher), Penicillin and Streptomycin (Thermo Fisher). 10^6 tumor cells were transplanted intradermally into C57Bl/6 mice. Mice were injected intraperitoneally with 100 μg of the indicated peptides or vehicle control every other day starting 24 h after tumor cell inoculation. Bodyweight and tumor volume were measured at the indicated time points, subsequently.

[7] = system: Candida albicans; assay: Systemic (intravenous) Candida albicans infection of mice; assay type: in vivo, mouse; conditions: control peptides versus untreated control cohort
Experimental: 8-10 week old mice were infected with 10^5 colony forming units (CFU) of C. albicans (strain SC5314), 10^5 colony forming units (CFU) of C. dubliniensis, or 10^5 CFUs of Listeria monocytogenes (strain EGD) intravenously. C. albicans CFUs were assessed from various organs as described (Wirnsberger et al., 2014). For clodronate or PBS liposome treatment experiments, mice were injected intraperitoneally with 100 ul/10 g mouse weight of liposomes both 24 h before and 24 h after intravenous C. albicans infections. Clodronate or PBS control liposomes were obtained from clodronateliposomes.org, and handled according to the manufacturer's instructions.

[8] = system: BM-DC; assay: ROS production by BM-DC co-cultured with Candida albicans (luminol assay); assay type: cell-based, mouse; conditions: Cbl-b+/+ BM-DC; 100 μM peptide; versus no peptide
Source text: BM-DC or BM-M were obtained by differentiation from bone marrow precursor cells.

[9] = system: phosphorylated Syk; assay: Western blotting of Syk in Candida albicans stimulated BM-DC with MG132; assay type: cell-based, mouse; conditions: MG132 10 μM
Experimental: as §1
Western blotting was performed according to standard protocols. Blots were blocked for 1 hour with 5% bovine serum albumin in 1×TBS/0.1% Tween-20, or 4% BSA in 1×TBS/0.1% Tween-20 for phosphorylated epitopes, followed by overnight incubation at 4° C. with primary antibodies. Subsequently, blots were washed three times in 1×TBS/0.1% Tween-20 for 15 min, followed by incubation with HRP-conjugated secondary antibodies (1:2500; GE Healthcare # NA9340V) for 45 min at room temperature, washed three times in 1×TBS/0.1% Tween-20 for 15 min and visualized using enhanced chemiluminescence (ECL Plus, Pierce). […] Precipitates were analyzed by Western blotting using the indicated antibodies. […] Precipitates were analyzed by Western blotting with the indicated antibodies.

Compound: KIKKTKKKGRKKIKKTKKKGRKSTPNFGVYGTSPWGPE (KIKKTKKKGRKKIKKTKKKGRKSTPNFGV[pY]GTSPWGPE; listed as Mus musculus) [M4]
- proliferative response of cblb Δ/Δ CD4+ T cells [1]: only mildly increased
- proliferative response of cblb+/+ CD4+ T cells [1]: only mildly increased

Compound: COc1cc(Nc2ncc(F)c(Nc3ccc4c(n3)NC(=O)C(C)(C)O4)n2)cc(OC)c1OC [R406]
- BM-DC mediated Candida albicans killing in the presence of inhibitor [2]: almost completely abrogated
- IL-1β secretion by Candida albicans stimulated BM-DC ([3]; BM-DC of all three genotypes): almost completely abrogated
- release of IL-6 by Candida albicans stimulated BM-DC ([3]; all three genotypes): almost completely abrogated
- release of TNF by Candida albicans stimulated BM-DC ([3]; all three genotypes): almost completely abrogated

Compound: DRQIKIWFQNRRMKWKKSTVSFNPYEPELAPWA (DRQIKIWFQNRRMKWKKSTVSFNP[pY]EPELAPWA; listed as Homo sapiens) [H1]
- proliferative response of human CD8+ T cells [4]: dose dependent significant increase
- activation marker CD69 on T cells ([5]; percentage of CD69+ of total CD4+ cells, versus untreated cells): dose dependent upregulation
- proliferative response of human CD4+ T cells ([5]; plate bound CD3/CD28 antibodies, 3 days, CFSE dilution): dose dependent significant increase
- production of IFN-γ by CD4+ T cells ([5]; supernatants of proliferation assay, ELISA): increased significantly

Compound: CC[C@H](C)[C@H](NC(=O)[C@H](CCCCN)NC(=O)[C@@H](NC(=O)[C@H](CCC(N)=O)NC(=O)[C@H](CCCNC(=N)N)NC(=O)[C@@H](N)CC(=O)O)[C@@H](C)CC)C(=O)N[C@@H](Cc1c[nH]c2ccccc12)C(=O)N[C@@H](Cc1ccccc1)C(=O)N[C@@H](CCC(N)=O)C(=O)N[C@@H](CC(N)=O)C(=O)N[C@@H](CCCNC(=N)N)C(=O)N[C@@H](CCCNC(=N)N)C(=O)N[C@@H](CCSC)C(=O)N[C@@H](CCCCN)C(=O)N[C@@H](Cc1c[nH]c2ccccc12)C(=O)N[C@@H](CCCCN)C(=O)N[C@@H](CCCCN)C(=O)N[C@@H](CO)C(=O)N[C@H](C(=O)N1CCC[C@H]1C(=O)N[C@@H](CC(N)=O)C(=O)N[C@@H](Cc1ccccc1)C(=O)NCC(=O)N[C@H](C(=O)N[C@@H](Cc1ccc(OP(=O)(O)O)cc1)C(=O)NCC(=O)N[C@H](C(=O)N[C@@H](CO)C(=O)N1CCC[C@H]1C(=O)N[C@@H](Cc1c[nH]c2ccccc12)C(=O)NCC(=O)N1CCC[C@H]1C(=O)N[C@@H](CCC(=O)O)C(=O)O)[C@@H](C)O)C(C)C)[C@@H](C)O [M2]
- bodyweight gain [6]: did not affect

Compound: DRQIKIWFQNRRMKWKK [Antennapedia peptide, cell penetrating peptide derived from the Drosophila Antennapedia homeodomain, used alone as control]
- fungicidal activity (killing capacity) of BM-DC upon Candida albicans infection ([2]; 24 h co-culture, 100 μM peptide): did not affect
- morbidity or mortality [7]: did not affect
- ROS production by BM-DC in response to Candida albicans stimulation [8]: did not affect

Compound: KIKKTKKKGRKKIKKTKKKGRKSTVSFNPYEPTGGPWG (KIKKTKKKGRKKIKKTKKKGRKSTVSFNP[pY]EPTGGPWG; listed as Mus musculus) [M3]
- proliferative response of cblb Δ/Δ CD4+ T cells [1]: marked increase
- effect on proliferation under suboptimal stimulatory conditions ([1]; low concentrations of CD3, with or without CD28 co-stimulation): more pronounced effects
- proliferative response of cblb+/+ CD4+ T cells [1]: dose dependent increase

Compound: CC(C)C[C@@H](C=O)NC(=O)[C@H](CC(C)C)NC(=O)[C@H](CC(C)C)NC(=O)OCc1ccccc1 [MG132] (Cbz-Leu-Leu-Leu-aldehyde)
- levels of phosphorylated Syk ([9]; Cbl-b Δ/Δ BM-DC stimulated with Candida albicans): did not change
- phosphorylated Syk in lysates ([9]; Cbl-b+/+ BM-DC stimulated with Candida albicans): increase

Compound: DRQIKIWFQNRRMKWKKEAVPLYAWYPNPSTFES (DRQIKIWFQNRRMKWKKEAVPLYAW[pY]PNPSTFES; listed as Homo sapiens) [H2]
- effects on proliferation, IFN-γ and CD69 of human T cells ([5]; scrambled control, compared with H1): Slight effects

Compound: O=C(N/N=C/c1ccc(O)c(O)c1)c1cc2ccccc2cc1O [Dynasore]
- BM-DC mediated Candida albicans killing in the presence of inhibitor [2]: abrogated
